Reference: EP0336446A1, “Gene and gene product for the production of beta-lactam-compounds” (BIOCHEMIE GESELLSCHAFT M.B.H., priority 1988, dated 1989)
Where “and” joins values, the source holds several entries; their conditions need not be identical. Equal entries are not always repeated.

Legend:
[1] = test system: Micrococcus luteus ATCC 9341/BC 85; test: Agar diffusion test of penicillin standards (inhibition zone diameter); assay type: cell-based
[2] = biological target: T1, PAT (Penicillium chrysogenum, UniProt P15802); test: Microbiological agar diffusion test (Micrococcus luteus ATCC 9341/BC 85) of transacylation of Isopenicillin N with PaCoA by enzyme preparation AS-Präzipitat; assay type: biochemical, Penicillium chrysogenum P2/ATCC 48271
Experimental: (§1) Die, wie in Beispiel 2 beschrieben, hergestellte Enzymrohpräzipitation wird im mikrobiologischen Agardiffusionstest hinsichtlich Transacylierung von 6-APA bzw. Isopenicillin N mit PaCoA und Spaltung von Kalium Penicillin V mit bzw. ohne Inhibitorzusatz folgendermaßen getestet: Testkeim: Micrococcus luteus ATCC 9341/BC 85, 0,5% Einsaat Testmedium: Antibiotic Medium 1 (DIFCO), 110 ml Testplatte: Nunc 243x243x18 mm Probe: 50 µl pro Näpfchen (6 mm Durchmesser) Inkubation: 37°, 15 Stunden Enzym: AS-Präzipitat (hergestellt wie in Beispiel 2 beschrieben): 1 ml zentrifugiert (20.000 Upm/10 min), Überstand verworfen, Pellet in 20 ml RP + Z resuspendiert. RP + Z: 0,1 M Phosphatpuffer pH 7,5 + 1 mM DTT + 10 mM MgCl₂
Sofort bzw. nach 7, 30 und 60 Minuten Inkubationszeit werden 20 µl Aliquots der Ansätze entnommen, 1:5 mit 50% Ethanol (Stoppen der Enzymreaktion) verdünnt und im Agardiffusionstest auf Penicillingehalt getestet.

[3] = biological target: T1, PAT; test: Substrate specificity of purified PAT (fraction AL 278/2), specific enzyme activity by HPLC; assay type: biochemical, Penicillium chrysogenum P2/ATCC 48271
[4] = biological target: T1, PAT; test: Penicillin V cleavage by AS-Präzipitat, residual penicillin by agar diffusion test; assay type: biochemical, Penicillium chrysogenum P2/ATCC 48271
Experimental: as §1

[5] = labelled substance = Acylakzeptor, Acyldonator PaCoA
[6] = labelled substance = Acylakzeptor, Acyldonator PeCoA
[7] = labelled substance = Acyldonator, Acylakzeptor H₂O, Produkt 6-APA

T1 sequence (P15802 103-357 limits assumed): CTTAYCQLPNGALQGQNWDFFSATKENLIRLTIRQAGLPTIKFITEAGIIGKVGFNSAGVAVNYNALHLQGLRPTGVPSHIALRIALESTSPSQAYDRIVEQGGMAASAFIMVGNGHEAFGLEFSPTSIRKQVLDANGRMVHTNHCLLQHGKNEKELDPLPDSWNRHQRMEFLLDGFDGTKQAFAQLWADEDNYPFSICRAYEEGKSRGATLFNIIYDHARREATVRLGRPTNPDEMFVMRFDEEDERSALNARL
T1 sequence (P15802 1-102 limits assumed): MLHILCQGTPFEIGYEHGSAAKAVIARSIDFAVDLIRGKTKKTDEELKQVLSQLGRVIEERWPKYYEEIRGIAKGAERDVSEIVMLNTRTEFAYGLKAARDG

With `CC1(C)S[C@@H]2[C@H](NC(=O)CCC[C@H](N)C(=O)O)C(=O)N2[C@H]1C(=O)O` [Isopenicillin N Nr. 28, Isopenicillin N] the zone of inhibition at 12.5 µg/mL ([1]; Micrococcus luteus, ATCC9341, 15 h, read-out: HH ⌀ mm, Isopenicillin N Std. 12.5 µg/ml) was 12.4 mm, the zone of inhibition at 25 µg/mL ([1]; Micrococcus luteus, ATCC9341, 15 h, read-out: HH ⌀ mm, Isopenicillin N Std. 25 µg/ml) was 16.5 mm and the zone of inhibition at 50 µg/mL ([1]; Micrococcus luteus, ATCC9341, 15 h, read-out: HH ⌀ mm, Isopenicillin N Std. 50 µg/ml) was 20 mm. For the same molecule, the “Transacylierung von Isopenicillin N (#28 u 36) mit PaCoA (HH ⌀ mm)” value (“Transacylierung von Isopenicillin N” below) ([2]; a) ohne Inhibitor, 7′, listed as Nr. 28) was 25.5 mm, the “Transacylierung von Isopenicillin N” value ([2]; a) ohne Inhibitor, 30′, listed as Nr. 28) was 26.0 mm and the “Transacylierung von Isopenicillin N” value ([2]; a) ohne Inhibitor, 60′, listed as Nr. 28) was 23.0 mm. For the same molecule, the “Transacylierung von Isopenicillin N” value ([2]; a) ohne Inhibitor, s (sofort), listed as Nr. 28) was 22.5 mm, the “Transacylierung von Isopenicillin N” value ([2]; b) 2 mM Jodacetamid, 7′, listed as Nr. 28) was 20.8 mm and the “Transacylierung von Isopenicillin N” value ([2]; b) 2 mM Jodacetamid, 30′, listed as Nr. 28) was 18.3 mm. The “Transacylierung von Isopenicillin N” value ([2]; b) 2 mM Jodacetamid, 60′, listed as Nr. 28) was 14.7 mm, the “Transacylierung von Isopenicillin N” value ([2]; b) 2 mM Jodacetamid, s (sofort), listed as Nr. 28) was 21.1 mm and the “Transacylierung von Isopenicillin N” value ([2]; c) 2 mM PMSF, 7′, listed as Nr. 28) was 24.7 mm. The “Transacylierung von Isopenicillin N” value ([2]; c) 2 mM PMSF, 30′, listed as Nr. 28) was 25.7 mm, the “Transacylierung von Isopenicillin N” value ([2]; c) 2 mM PMSF, 60′, listed as Nr. 28) was 20.7 mm and the “Transacylierung von Isopenicillin N” value ([2]; c) 2 mM PMSF, s (sofort), listed as Nr. 28) was 22.7 mm.
In the case of `CC1(C)S[C@@H]2[C@H](NC(=O)CCC[C@H](N)C(=O)O)C(=O)N2[C@H]1C(=O)O` [Isopenicillin N Nr. 36, Isopenicillin N], the “HH ⌀ mm” value ([1]; Isopenicillin N Std. 12.5 µg/ml) is reported as 18.4 mm, the “HH ⌀ mm” value ([1]; Isopenicillin N Std. 25 µg/ml) is reported as 22.1 mm and the “HH ⌀ mm” value ([1]; Isopenicillin N Std. 50 µg/ml) is reported as 24.5 mm. The “Transacylierung von Isopenicillin N” value ([2]; a) ohne Inhibitor, 7′, listed as Nr. 36) was 28.3 mm, the “Transacylierung von Isopenicillin N” value ([2]; a) ohne Inhibitor, 30′, listed as Nr. 36) was 30.8 mm and the “Transacylierung von Isopenicillin N” value ([2]; a) ohne Inhibitor, 60′, listed as Nr. 36) was 28.7 mm. The “Transacylierung von Isopenicillin N” value ([2]; a) ohne Inhibitor, s (sofort), listed as Nr. 36) was 27.0 mm, the “Transacylierung von Isopenicillin N” value ([2]; b) 2 mM Jodacetamid, 7′, listed as Nr. 36) was 25.0 mm and the “Transacylierung von Isopenicillin N” value ([2]; b) 2 mM Jodacetamid, 30′, listed as Nr. 36) was 23.6 mm. The “Transacylierung von Isopenicillin N” value ([2]; b) 2 mM Jodacetamid, 60′, listed as Nr. 36) was 22.1 mm, the “Transacylierung von Isopenicillin N” value ([2]; b) 2 mM Jodacetamid, s (sofort), listed as Nr. 36) was 25.2 mm and the “Transacylierung von Isopenicillin N” value ([2]; c) 2 mM PMSF, 7′, listed as Nr. 36) was 27.2 mm. For the same molecule, the “Transacylierung von Isopenicillin N” value ([2]; c) 2 mM PMSF, 30′, listed as Nr. 36) was 27.7 mm, the “Transacylierung von Isopenicillin N” value ([2]; c) 2 mM PMSF, 60′, listed as Nr. 36) was 26.7 mm and the “Transacylierung von Isopenicillin N” value ([2]; c) 2 mM PMSF, s (sofort), listed as Nr. 36) was 26.3 mm.
With `CC1(C)S[C@@H]2[C@H](NC(=O)CCC[C@H](N)C(=O)O)C(=O)N2[C@H]1C(=O)O` [Isopenicillin N] the “mittels HPLC bestimmte spezifische Enzymaktivität (mU/mg Protein) A1 278/2” value [3, 5] was 146 mU/mg Protein, the “mittels HPLC bestimmte spezifische Enzymaktivität (mU/mg Protein) A1 278/2” value [3, 6] was 80 mU/mg Protein and the “mittels HPLC bestimmte spezifische Enzymaktivität (mU/mg Protein) A1 278/2” value [3, 7] was 150 mU/mg Protein.
For `CC1(C)S[C@@H]2[C@H](NC(=O)COc3ccccc3)C(=O)N2[C@H]1C(=O)O` [Kalium Penicillin V], the “Spaltung von Kalium Penicillin V (HH ⌀ mm)” value ([4]; a) ohne Inhibitor, 7′) was 21.8 mm, the “Spaltung von Kalium Penicillin V (HH ⌀ mm)” value ([4]; a) ohne Inhibitor, 30′) was 0 mm and the “Spaltung von Kalium Penicillin V (HH ⌀ mm)” value ([4]; a) ohne Inhibitor, 60′) was 0 mm. For the same molecule, the “Spaltung von Kalium Penicillin V (HH ⌀ mm)” value ([4]; a) ohne Inhibitor, s) was 25.7 mm, the “Spaltung von Kalium Penicillin V (HH ⌀ mm)” value ([4]; b) + 2 mM Jodacetamid, 7′) was 23.1 mm and the “Spaltung von Kalium Penicillin V (HH ⌀ mm)” value ([4]; b) + 2 mM Jodacetamid, 30′) was 0 mm. For the same molecule, the “Spaltung von Kalium Penicillin V (HH ⌀ mm)” value ([4]; b) + 2 mM Jodacetamid, 60′) was 0 mm, the “Spaltung von Kalium Penicillin V (HH ⌀ mm)” value ([4]; b) + 2 mM Jodacetamid, s) was 25.7 mm and the “Spaltung von Kalium Penicillin V (HH ⌀ mm)” value ([4]; c) + 2 mM Ethylmaleinimid, 7′) was 23.0 mm. The “Spaltung von Kalium Penicillin V (HH ⌀ mm)” value ([4]; c) + 2 mM Ethylmaleinimid, 30′) was 0 mm, the “Spaltung von Kalium Penicillin V (HH ⌀ mm)” value ([4]; c) + 2 mM Ethylmaleinimid, 60′) was 0 mm and the “Spaltung von Kalium Penicillin V (HH ⌀ mm)” value ([4]; c) + 2 mM Ethylmaleinimid, s) was 25.0 mm. The “Spaltung von Kalium Penicillin V (HH ⌀ mm)” value ([4]; d) + 2 mM PMSF, 7′) was 0 mm, the “Spaltung von Kalium Penicillin V (HH ⌀ mm)” value ([4]; d) + 2 mM PMSF, 30′) was 0 mm and the “Spaltung von Kalium Penicillin V (HH ⌀ mm)” value ([4]; d) + 2 mM PMSF, 60′) was 0 mm. The “Spaltung von Kalium Penicillin V (HH ⌀ mm)” value ([4]; d) + 2 mM PMSF, s) was 25.3 mm, the “HH ⌀ mm” value ([1]; Penicillin V Std. 0.25 µg/ml) was 11.9 mm and the “HH ⌀ mm” value ([1]; Penicillin V Std. 0.5 µg/ml) was 18.4 mm. For the same molecule, the “HH ⌀ mm” value ([1]; Penicillin V Std. 1.0 µg/ml) was 23.4 mm, the “HH ⌀ mm” value ([1]; Penicillin V Std. 1.5 µg/ml) was 24.7 mm and the “HH ⌀ mm” value ([1]; Penicillin V Std. 2.0 µg/ml) was 27.4 mm.
With `CC1(C)S[C@@H]2[C@H](NC(=O)Cc3ccccc3)C(=O)N2[C@H]1C(=O)O` [Penicillin G] the “mittels HPLC bestimmte spezifische Enzymaktivität (mU/mg Protein) A1 278/2” value [3, 5] was 25 mU/mg Protein and the “mittels HPLC bestimmte spezifische Enzymaktivität (mU/mg Protein) A1 278/2” value [3, 7] was 17 mU/mg Protein.
Work on `CC1(C)S[C@@H]2[C@H](NC(=O)COc3ccccc3)C(=O)N2[C@H]1C(=O)O` [Penicillin V] yielded a zone of inhibition at 0.25 µg/mL ([1]; Micrococcus luteus, ATCC9341, 15 h, Penicillin V Std. 0.25 µg/ml, read-out: HH ⌀ mm) of 9.7 mm, a zone of inhibition at 0.5 µg/mL ([1]; Micrococcus luteus, ATCC9341, 15 h, Penicillin V Std. 0.5 µg/ml, read-out: HH ⌀ mm) of 17.6 mm and a zone of inhibition at 1 µg/mL ([1]; Micrococcus luteus, ATCC9341, 15 h, Penicillin V Std. 1.0 µg/ml, read-out: HH ⌀ mm) of 21.7 mm. For the same molecule, the zone of inhibition at 1.5 µg/mL ([1]; Micrococcus luteus, ATCC9341, 15 h, Penicillin V Std. 1.5 µg/ml, read-out: HH ⌀ mm) was 24 mm, the zone of inhibition at 2 µg/mL ([1]; Micrococcus luteus, ATCC9341, 15 h, Penicillin V Std. 2.0 µg/ml, read-out: HH ⌀ mm) was 25.3 mm and the “HH ⌀ mm” value ([1]; Penicillin V Std. 0.25 µg/ml) was 11.9 mm. For the same molecule, the “HH ⌀ mm” value ([1]; Penicillin V Std. 0.5 µg/ml) was 17.8 mm and 18.4 mm, the “HH ⌀ mm” value ([1]; Penicillin V Std. 1.0 µg/ml) was 23.4 mm and the “HH ⌀ mm” value ([1]; Penicillin V Std. 1.5 µg/ml) was 24.7 mm. For the same molecule, the “HH ⌀ mm” value ([1]; Penicillin V Std. 2.0 µg/ml) was 27.4 mm, the “mittels HPLC bestimmte spezifische Enzymaktivität (mU/mg Protein) A1 278/2” value [3, 6] was 99 mU/mg Protein and the “mittels HPLC bestimmte spezifische Enzymaktivität (mU/mg Protein) A1 278/2” value [3, 7] was 75 mU/mg Protein.
Penicillin was tested, and the “antibakterielle Sensitivität gegenüber Penicillin als gegenüber 6-APA” value ([1]; Micrococcus luteus ATCC 9341, relative to 6-APA) was “mehr als drei Zehnerpotenzen”.
